Measurements taken from PubChem BioAssay (NCI).
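Grown in 96-well plates, cells were treated for 48 hours with each compound at five concentrations. Insufficient inhibition: endpoint recorded as highest concentration tested. TGI denotes the concentration required for complete inhibition of growth.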 Where a SMILES comes first, the peptide text is derived from it. [ ]: non-standard residue; d: D form. The star is where a group is joined. Boc = CC(C)(C)OC(=O)*; Lac = C[CH](O)C(=O)O; OBn = c1ccc(CO*)cc1

Tests used:
Test in all cases: NCI tumour cell line growth inhibition, 48 h
COLO 205 colon = tested on: COLO 205 colon
HL-60(TB) leukemia = tested on: HL-60(TB) leukemia
HOP-92 NSCLC = tested on: HOP-92 NSCLC
MCF7 breast = tested on: MCF7 breast
MDA-MB-231 breast = tested on: MDA-MB-231 breast
MDA-N = tested on: MDA-N
NCI-H23 lung = tested on: NCI-H23 lung
NCI/ADR-RES ovarian = tested on: NCI/ADR-RES ovarian
OVCAR-3 ovarian = tested on: OVCAR-3 ovarian
OVCAR-5 ovarian = tested on: OVCAR-5 ovarian
PC-3 prostate = tested on: PC-3 prostate
RPMI-8226 leukemia = tested on: RPMI-8226 leukemia
SF-295 CNS = tested on: SF-295 CNS
T-47D breast = tested on: T-47D breast
HOP-18 NSCLC = tested on: HOP-18 NSCLC
M19-MEL melanoma = tested on: M19-MEL melanoma
P388/ADR leukemia = tested on: P388/ADR leukemia
SF-268 CNS = tested on: SF-268 CNS
SN12K1 renal = tested on: SN12K1 renal
ACHN renal = tested on: ACHN renal

| SMILES | TGI (COLO 205 colon) | TGI (HL-60(TB) leukemia) | TGI (HOP-92 NSCLC) | TGI (MCF7 breast) | TGI (MDA-MB-231 breast) | TGI (MDA-N) | TGI (NCI-H23 lung) | TGI (NCI/ADR-RES ovarian) | TGI (OVCAR-3 ovarian) | TGI (OVCAR-5 ovarian) | TGI (PC-3 prostate) | TGI (RPMI-8226 leukemia) | TGI (SF-295 CNS) | TGI (T-47D breast) | TGI (HOP-18 NSCLC) | TGI (M19-MEL melanoma) | TGI (P388/ADR leukemia) | TGI (SF-268 CNS) | TGI (SN12K1 renal) | TGI (ACHN renal) |
| --- | --- | --- | --- | --- | --- | --- | --- | --- | --- | --- | --- | --- | --- | --- | --- | --- | --- | --- | --- | --- |
| CC(OC(=O)C(Cc1ccccc1)NC(=O)C(Cc1ccccc1)NC(=O)OC(C)(C)C)C(=O)OCc1ccccc1 (stereo not drawn) (Boc-Phe-Phe-[Lac]-OBn; configuration not given here) | > 100 µM | > 100 µM | > 100 µM | 54.6 µM | > 100 µM | > 100 µM | > 100 µM | > 100 µM | > 100 µM | > 100 µM | > 100 µM | > 100 µM | > 100 µM | > 100 µM | – | – | – | – | – | – |
| N/C(=N\N=C/c1ccc(O)c(O)c1O)NO | 17.6 µM | 41.4 µM | > 100 µM | 32.9 µM | – | – | 68.4 µM | 40.3 µM | 51 µM | > 73.6 µM | – | > 100 µM | > 40 µM | – | > 100 µM | 48.1 µM | 41.6 µM | > 100 µM | 34.7 µM | – |
| NC(CCCCCCCCCCP(=O)(O)O)C(=O)O (centres undefined) | > 100 µM | > 100 µM | > 100 µM | > 100 µM | > 100 µM | > 100 µM | > 100 µM | > 100 µM | > 100 µM | > 100 µM | > 100 µM | > 100 µM | > 100 µM | > 100 µM | – | – | – | – | – | > 100 µM |
| CC1(C)CCc2ccc(OCCC(=O)O)cc2O1 | > 100 µM | > 100 µM | > 100 µM | – | – | – | > 100 µM | – | > 100 µM | > 100 µM | – | > 100 µM | > 100 µM | – | – | > 100 µM | – | > 100 µM | – | > 100 µM |
| CCCCCCNC(=O)C(C)C1CCC2(C)C=CC(=O)C(C)=C2C1O (centres undefined) | > 100 µM | > 100 µM | > 100 µM | > 100 µM | – | – | > 100 µM | > 100 µM | > 100 µM | > 100 µM | – | > 100 µM | > 100 µM | – | > 100 µM | – | > 100 µM | > 100 µM | > 100 µM | – |
